As a reminder, the MIC is the lowest concentration found to suppress growth. By inhibition in vivo is commonly meant the share of the control response that was lost under treatment. What is called EC50 is the concentration at which the effect is half-maximal.

The test system of assay [1] is Plasmodium falciparum. The experiment in a line: Antiplasmodial activity against chloroquine-resistant Plasmodium falciparum W2 after 24 hrs by liquid scintillation counting analysis. The settings on record: W2, 24 h. In kind it is functional.
In assay [2] the test system is Plasmodium falciparum. The experiment in a line: Antiplasmodial activity against chloroquine-resistant Plasmodium falciparum K1 after 24 hrs by liquid scintillation counting analysis. In kind it is functional. The settings on record: K1, 24 h.
Assay [3] in a line: Inhibition of HDAC (unknown origin). The arrangement: species or system Homo sapiens.
In assay [4] the test system is Staphylococcus aureus. Kind of assay: Antibacterial activity against Staphylococcus aureus. The class given is functional.
Assay [5] deals with Mycobacterium. The experiment in a line: Antibacterial activity against Mycobacterium. The class given is functional.
Assay [6] relates to Plasmodium falciparum. The experiment in a line: Antimalarial activity against Plasmodium falciparum D6. In kind it is functional.
For assay [7], the system named is A549. The experiment in a line: Cytotoxicity against human A549 cells. The class given is functional, cell-based.
Assay [8] in a line: Cytotoxicity against human MDA-MB cells. The class given is functional, cell-based.
Assay [9] relates to P388. Kind of assay: Cytotoxicity against mouse P388 cells. The class given is functional, cell-based.
Assay [10] concerns HCT-8. The experiment in a line: Cytotoxicity against human HCT8 cells. The class given is functional, cell-based.
Assay [11] has as its system Streptococcus pyogenes. Kind of assay: Antibacterial activity against Streptococcus pyogenes. In kind it is functional.
In assay [12] the test system is Staphylococcus haemolyticus. The experiment in a line: Antibacterial activity against Staphylococcus haemolyticus. The class given is functional.
The subject of assay [13] is Enterococcus faecalis. Kind of assay: Antibacterial activity against Enterococcus faecalis. The class given is functional.
Assay [14] concerns Bacillus subtilis. Kind of assay: Antibacterial activity against Bacillus subtilis. The class given is functional.
The subject of assay [15] is Enterococcus faecium. The experiment in a line: Antibacterial activity against Enterococcus faecium. In kind it is functional.
Assay [16] relates to Plasmodium falciparum. The experiment in a line: Antiplasmodial activity against chloroquine-resistant Plasmodium falciparum W2 infected in human erythrocytes after 72 hrs by giemsa staining based microscopic analysis. The class given is functional, cell-based. To be noted: W2, 72 h.
In assay [17] the test system is HeLa. The experiment in a line: Cytotoxicity against human HeLa cells. In kind it is functional, cell-based.
For assay [18], the system named is Human alphaherpesvirus 2. Kind of assay: Antiviral activity against Herpes simplex virus type 2 by plaque reduction assay. The class given is functional. To be noted: read-out: ID50 (the source's name). In general terms: Plaques are areas of infected cells; plaque reduction assays count them against a control.
Assay [19] relates to Human alphaherpesvirus 1. Kind of assay: Antiviral activity against Herpes simplex virus type 1 by plaque reduction assay. The class given is functional. The settings on record: read-out: ID50 (the source's name).
Assay [20] relates to HL-60. Kind of assay: Cytotoxicity against human HL60 cells assessed as reduction in cell viability after 72 hrs by MTT assay. To be noted: HL-60, 72 h. The class given is functional, cell-based. (Tetrazolium dyes change colour on reduction, which living cells bring about.)
In assay [21] the test system is K562. The experiment in a line: Cytotoxicity against human K562 cells assessed as reduction in cell viability after 72 hrs by MTT assay. In kind it is functional, cell-based. The settings on record: K562, 72 h.
The target in assay [22] is Protein kinase C alpha type (Homo sapiens) (UniProt P17252). The experiment in a line: Inhibition of PKCalpha (unknown origin).
For assay [23], the target named is Protein kinase C beta type (Homo sapiens) (UniProt P05771). The experiment in a line: Inhibition of PKCbeta (unknown origin).
Protein kinase C beta type (Homo sapiens), sequence (P05771 2-671 limits assumed): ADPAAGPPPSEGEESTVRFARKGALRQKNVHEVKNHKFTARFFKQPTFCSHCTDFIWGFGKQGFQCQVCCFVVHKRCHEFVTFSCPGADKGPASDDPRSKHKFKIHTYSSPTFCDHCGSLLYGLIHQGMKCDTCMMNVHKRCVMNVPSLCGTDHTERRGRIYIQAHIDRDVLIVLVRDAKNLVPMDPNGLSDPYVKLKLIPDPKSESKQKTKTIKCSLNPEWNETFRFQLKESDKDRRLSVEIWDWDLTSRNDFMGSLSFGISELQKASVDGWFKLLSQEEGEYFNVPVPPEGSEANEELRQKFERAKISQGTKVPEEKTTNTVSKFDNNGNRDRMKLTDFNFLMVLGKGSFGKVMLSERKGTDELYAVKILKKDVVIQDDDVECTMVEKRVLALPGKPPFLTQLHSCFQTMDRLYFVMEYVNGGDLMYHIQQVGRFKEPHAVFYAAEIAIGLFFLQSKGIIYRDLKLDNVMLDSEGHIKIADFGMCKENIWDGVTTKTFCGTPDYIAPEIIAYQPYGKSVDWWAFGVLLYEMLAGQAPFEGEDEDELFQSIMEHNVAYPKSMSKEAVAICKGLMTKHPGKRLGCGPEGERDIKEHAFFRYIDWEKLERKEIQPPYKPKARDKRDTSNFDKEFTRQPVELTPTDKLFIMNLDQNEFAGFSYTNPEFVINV
Assay [24] in a line: Cytotoxicity against human NSCLC-N6 cells. In kind it is functional, cell-based.
Assay [25] deals with P388. The experiment in a line: Cytotoxicity against mouse doxorubicin-resistant P388 cells. The class given is functional, cell-based.
Assay [26] concerns KB. Kind of assay: Cytotoxicity against human KB cells. In kind it is functional, cell-based.
The subject of assay [27] is HT-29. Kind of assay: Cytotoxicity against human HT-29 cells. In kind it is functional, cell-based.
Assay [28] deals with Helicobacter pylori. The experiment in a line: Antibacterial activity against Helicobacter pylori. In kind it is functional.
Assay [29] has as its system Rattus norvegicus. Kind of assay: Antiinflammatory activity in rat assessed as inhibition of carrageenan-induced paw edema at 50 mg/kg, po administered 1 hr prior to carrageenan challenge measured 4 hrs post dose. The class given is functional.
Assay [30] deals with Human immunodeficiency virus 1. The experiment in a line: Antiviral activity against HIV-1 assessed as inhibition of virus-induced syncytia formation. In kind it is functional.

Each structure is given as a SMILES string. Values after ≈ are worked out from the molar mass of the structure shown.

In the case of `C[n+]1c2ccccc2cc2[n-]c3ccccc3c21.Cl` [CRYPTOLEPINE HYDROCHLORIDE], the IC50 in assay [1] and in assay [2] was 0.027 to 0.063 µg/mL throughout.

Molecule `O=C(/C=C/c1ccc(CN(CCO)CCc2c[nH]c3ccccc23)cc1)NO` [DACINOSTAT] returned an IC50 in assay [3] of 32 nM.

`O=c1ccc2nccc3c4cccc(O)c4n1c23`: the results for the MIC in assay [4] and in assay [5] were 8 to 64 µg/mL (≈ 33.9 to 271 µM) and 2 to 32 µg/mL (≈ 8.47 to 135 µM), respectively.

With `[O-][n+]1ccc2c([nH]c3ccccc32)c1C1=C[C@@]2(O)CC/C=C\CCCCN3CC[C@@H]1[C@]1(C[C@@H]4/C=C\CCCCN4[C@H]12)C3`, the MIC in assay [6] was determined as 11 µg/mL (≈ 19.5 µM).

In the case of `CN1C[C@H](c2c[nH]c3c(Br)c(Br)cc(O)c23)NC[C@H]1c1c[nH]c2cc(Br)ccc12`, the IC50 in assay [7] is 1 to 10 µg/mL (≈ 1.71 to 17.1 µM); in assay [8], 1 to 10 µg/mL (≈ 1.71 to 17.1 µM); in assay [9], 15 µg/mL (≈ 25.7 µM); in assay [10], 1 to 10 µg/mL (≈ 1.71 to 17.1 µM).

Take `Cn1c2c3ccccc3nc-2c(O)c2ccccc21` [HYDROXYCRYPTOLEPINE]: the IC50 in assay [1] and in [2] was 0.027 to 0.063 µg/mL (≈ 0.109 to 0.254 µM) each time.

On to `CN[C@@H](CC(C)C)C(=O)NCCc1c(Br)[nH]c2ccc(Br)cc12` [ALTEMATAMIDE C], for which the MIC in [11], in assay [12], in assay [4], in [13], in assay [14] and in assay [15] was 4 to 32 µg/mL (≈ 8.98 to 71.9 µM) in each case.

For `CN[C@@H](CC(C)C)C(=O)NCCc1c(Br)[nH]c2cc(Br)c(Br)cc12` [ALTEMATAMIDE B], the MIC in assay [11], in assay [12], in assay [4], in assay [13], in assay [14] and in [15] was 4 to 32 µg/mL (≈ 7.63 to 61.1 µM) each time.

For `CN[C@@H](CC(C)C)C(=O)NCCc1c(Br)n(C)c2cc(Br)c(Br)cc12` [ALTEMATAMIDE A], the MIC in [11], in assay [12], in [4], in assay [13], in assay [14] and in assay [15] was 4 to 32 µg/mL (≈ 7.43 to 59.5 µM) each time.

In the case of `Cn1c2nc3ccccc3c-2cc2ccccc21` [NEOCRYPTOLEPINE], the IC50 in assay [1] and in assay [2] was 0.027 to 0.063 µg/mL (≈ 0.116 to 0.271 µM) each time.

With `O[C@]12C=C(c3nccc4c3[nH]c3ccccc34)[C@@H]3CCN(CCCC/C=C\CC1)C[C@@]31C[C@@H]3/C=C\CCCCN3[C@H]12` [MANZAMINE A], inhibition of growth in assay [6] (MIC) required 4.5 µg/mL (≈ 8.2 µM).

Regarding `C=C1c2[nH]c3ccccc3c2C2C(CC)C1CCN2C` (stereo not drawn), the IC50 in assay [16] is < 1 µg/mL.

The molecule `COC(=O)[C@@]1(C)Nc2c(O)cc3c(c2C1=O)C[C@@H](Br)CN3C(=O)c1cc2cc(OC)c(OC)c(OC)c2[nH]1` showed an IC50 in [17] of 0.001 to 1 nM.

Molecule `CN1C(=N)N(C)/C(=C/c2c[nH]c3cc(Br)ccc23)C1=O` gave an MIC in [6] of 0.34 µg/mL (≈ 1.02 µM).

For `CC(C)CC(=O)[C@@H](O)Cc1c[nH]c2ccccc12`, the IC50 in assay [18] and in assay [19] was 1500 µg/mL (≈ 6110 µM) throughout.

Take `Oc1cccc2c1[nH]c1c(C3=C[C@@]4(O)CC/C=C\CCCCN5CC[C@@H]3[C@@]3(C[C@@H]6/C=C\CCCCN6[C@H]34)C5)nccc12`: in assay [6], the lowest concentration to inhibit growth (MIC) was 6 µg/mL (≈ 10.6 µM).

In the case of `CC(C)=CCc1cccc2c1N[C@@H]1N3C(=O)[C@H](Cc4c[nH]c5c(CC=C(C)C)cccc45)NC(=O)[C@@H]3C[C@]21O`, the IC50 in assay [20] amounted to 780 nM; in assay [21] it was 22400 nM.

Regarding `N#CCCn1c2ccccc2c2c3c(c4c5ccccc5[nH]c4c21)C(=O)NC3`, the INH in assay [22] was 2.3 nM; in [23], 6.2 nM.

As to `C[n+]1c2ccccc2cc2[n-]c3ccccc3c21` [CRYPTOLEPINE], the IC50 in assay [1] and in [2] was 0.027 to 0.063 µg/mL (≈ 0.116 to 0.271 µM) throughout.

Consider `NCCc1c(C(CN)c2c[nH]c3cc(Br)ccc23)[nH]c2cc(C(CN)c3c[nH]c4cc(Br)ccc34)c(O)cc12` (stereo not drawn) [GELLIUSINE A], for which the IC50 in [24], in assay [25], in [26], in assay [27] and in assay [9] was 10 to 20 µg/mL (≈ 15.4 to 30.7 µM) throughout.

Take `O=c1ccc2nccc3c4ccccc4n1c23` [CANTHIN-6-ONE]: the MIC in [4] lay in the range of 8 to 64 µg/mL (≈ 36.3 to 291 µM); in [5], 2 to 32 µg/mL (≈ 9.08 to 145 µM).

For the molecule `CNC1=NC(=O)[C@H]([C@H](C)c2c[nH]c3ccccc23)O1` [INDOMYCIN], the MIC turned out to be 0.016 µg/mL (≈ 0.0622 µM) in assay [28] and 0.5 µg/mL (≈ 1.94 µM) in assay [4].

Take `O=C(O)c1ccc(C(=O)N/N=C/c2c(-c3cccs3)[nH]c3ccccc23)cc1`: in assay [29], the inhibition in vivo at 50 mg/kg was 55.3%.

In turn, `COC(=O)[C@@]1(C)NC2=C(C1=O)[C@@]13C[C@H]1CN(C(=O)c1cc4cc(OC)c(OC)c(OC)c4[nH]1)C3=CC2=O` returned an IC50 in assay [17] of 0.001 to 1 nM.

For `COc1ccc2c(c1)N=CN1CCc3c([nH]c4ccccc34)C3=NCC[C@@]321`, in [30], the EC50 was determined as 0.95 µg/mL (≈ 2.67 µM).

In assay [17], `COC(=O)[C@@]1(C)Nc2c(O)cc3c(c2C1=O)[C@@H](CBr)CN3C(=O)c1cc2cc(OC)c(OC)c(OC)c2[nH]1` gave an IC50 of 0.001 to 1 nM.
